According to patent US20070219825A1, “METHOD OF MANAGING AND REDUCING SIDE EFFECTS ASSOCIATED WITH EXPOSURE TO A DRUG” (priority 2005, published 2007):

What was measured:
[1] = tested on: pulmonary arterial hypertension (PAH); assay: clinical studies in subjects with PAH; format: in vivo
Text: (§1) As described herein, an exemplary restricted drug distribution program for the distribution of sitaxsentan sodium has been developed, in accordance with the restricted distribution methods provided above, to minimize the risk of side effects associated with exposure to sitaxsentan sodium. Sitaxsentan sodium is an endothelin receptor antagonist (ETRA) used to treat people diagnosed with pulmonary arterial hypertension (PAH). […] However, along with the many benefits, there are many risks associated with exposure to sitaxsentan sodium. For instance, ETRA's, as a class, have been associated with liver function abnormalities. […] In addition, ETRA's, as a class, have consistently produced teratogenic effects in animals. […] Although the effects of sitaxsentan sodium on human development are not known, it is likely to produce major birth defects if used by pregnant women. Sitaxsentan sodium also is contraindicated for those taking cyclosporine A (used for treatment of psoriasis and rheumatoid arthritis, and to prevent rejection of organ transplants).

[2] = placebo-controlled trials, liver aminotransferases; format: in vivo, patients
Text: as §1

rat = assay: reproductive toxicology studies, dosing during pregnancy; format: in vivo
Text: as §1

metabolism of warfarin = conditions: concomitant warfarin; cited from earlier work

Cc1cc2c(cc1CC(=O)c1sccc1S(=O)(=O)Nc1onc(C)c1Cl)OCO2 [sitaxsentan sodium]
safety and efficacy in the treatment of PAH [1]: demonstrated safety and efficacy
patients with at least a three-fold increase of liver aminotransferases (hepatoxicity) [2]: about two
reproductive toxicology: effect of dosing during pregnancy (rat): several fetal malformations
effect on metabolism of warfarin (metabolism of warfarin): antagonize the metabolism of warfarin
